Converted amounts (≈) assume the structure as drawn. Read-outs that look alike come from different tables or passages of the source.
What was measured:
Format in all cases: cell-based
P. aeruginosa = assay: Slimicide test for pulp and paper mill water systems; settings: 28° C.
Procedure: (§1) Various quantities of a 6% solution of this compound in dimethylformamide were incorporated into 24 ml of a test substrate composed as follows:
(§2) 8.4 g--Whatman No. 2 powdered cellulose
(§3) 1.0 g--Nutrient Broth, Difco
(§4) 10.0 ml--Mersize Rm 70R (Monsanto)
(§5) The samples were inoculated with four different organisms and incubated at 28° C. At weekly intervals the samples were examined for the presence of microbial growth and reinoculated during a total incubation period of four weeks.

E. aerogenes = assay: as above; settings: Klebsiella aerogenes, 28° C.
Procedure: as §1, §2, §3, §4, §5

A. niger = assay: as above; settings: 28° C.
Procedure: as §1, §2, §3, §4, §5

P. Piscarium = assay: as above; settings: 28° C.
Procedure: as §1, §2, §3, §4, §5

Aspergillis oryzae = assay: General antimicrobial activity, agar dilution MIC (fungi); settings: 168 h, mildew glucose agar, 28° C., seven days, growth only at the lower concentration of the range, read-out: Minimum Inhibitory Concentration
Procedure: A 6% soltuion of α-halo-β-aminocrotonic acid ester in dimethyl formamide was prepared. The 6% solution was then […] serially diluted in test tubes to give the desired concentrations when mixed with agar and poured into sterile Petri dishes. For instance, 0.8 ml of a 6% stock solution plus 24.2 ml of agar gives a test concentration of 1920 mcg/ml, the highest level tested. Tryptone glucose extract agar is used for the bacterial testing; mildew glucose agar for the fungal testing. The bacterial plates were spot inoculated with 24-hour nutrient broth cultures and incubated at 37° C. for 48 hours. The fungal plates were spot inoculated with spore suspensions and incubated at 28° C. for seven days. At the end of the incubation periods, all plates were examined for growth. The minimum inhibitory concentration (MIC) for each organism is expressed in Table I. In the ranges presented, growth is observed only at the lower concentration.

Aspergillus niger = assay: Cosmetic preservative test in lotion; settings: 28° C.
Procedure: (§6) The α-halo-β-aminocrotonic acid esters are effective cosmetic preservatives. Two-fold serial dilutions of 6% solutions of the α-halo-β-aminocrotonic acid esters in dimethylformamide were added to a cosmetic lotion of the following formulation: The lotions were inoculated with both Pseudomonas aeruginosa and Aspergillus niger and incubated at 28° C. At weekly intervals, the lotions were examined for microorganisms by conventional streak-plate methods or by macroscopic observation. The lotions were then reinoculated with the test organisms and reincubated.

Pseudomonas aeruginosa [1] = assay: Cosmetic preservative test in lotion; settings: 28° C.
Procedure: as §6

Pseudomonas aeruginosa [2] = assay: Cutting oil preservative test in 3.3% cutting oil emulsion; settings: for MIC: Pseudomonas aeruginosa, 3.3% cutting oil emulsion, 28° C., rotary shaker, read-out: Minimum Inhibitory Concentration Range
Procedure: (§7) In running these tests, two-fold serial dilutions of 6% solutions of the compound in dimethylformamide was added to 3.3% cutting oil elumsions. The emulsions were prepared by diluting with water a commercially available cutting oil concentrate. The emulsions were inoculated with a culture of Pseudomonas aeruginosa and incubated at 28° C. on a rotary shaker. At weekly intervals, the emulsions were examined for bacteria by conventional streakplate methods. The emulsions were then reinoculated with Pseudomonas aeruginosa and reincubated.

Pseudomonas aeruginosa [3] = assay: Textile lubricant preservative test; settings: commercial textile lubricant, 28° C.
Procedure: as §7
The test run was the same as for the cutting oil above except that a commercial textile lubricant was substituted.

[4] = (week 4), reinoculated weekly, read-out: Effectiveness as a Slimicide
[5] = week 1, read-out: Effectiveness as a Slimicide
[6] = week 2, reinoculated weekly, read-out: Effectiveness as a Slimicide
[7] = week 3, reinoculated weekly, read-out: Effectiveness as a Slimicide
[8] = week 1, read-out: Minimum Inhibitory Concentration Range
[9] = week 3, reinoculated weekly, read-out: Minimum Inhibitory Concentration Range
[10] = week 4, reinoculated weekly, read-out: Minimum Inhibitory Concentration Range

## COC(=O)/C(Cl)=C(/C)N [α-Chloro-β-aminocrotonic acid methyl ester]
P. aeruginosa; (week 4), reinoculated weekly
  Effectiveness as a Slimicide: < 62.5 µg/mL
P. aeruginosa; week 2, reinoculated weekly
  Effectiveness as a Slimicide: < 62.5 µg/mL
P. aeruginosa; week 3, reinoculated weekly
  Effectiveness as a Slimicide: < 62.5 µg/mL
P. aeruginosa; Pseudomonas aeruginosa, week 1, read-out: Effectiveness as a Slimicide
  MIC: < 62.5 µg/mL
E. aerogenes; [4]
  MIC: 250 to 500 µg/mL (≈ 1670 to 3340 µM)
E. aerogenes; [5]
  MIC: < 62.5 µg/mL
E. aerogenes; [6]
  MIC: 125 to 250 µg/mL (≈ 836 to 1670 µM)
E. aerogenes; [7]
  MIC: 250 to 500 µg/mL (≈ 1670 to 3340 µM)
A. niger; (week 4), reinoculated weekly
  Effectiveness as a Slimicide: < 62.5 µg/mL
A. niger; week 2, reinoculated weekly
  Effectiveness as a Slimicide: < 62.5 µg/mL
A. niger; week 3, reinoculated weekly
  Effectiveness as a Slimicide: < 62.5 µg/mL
A. niger; Aspergillus niger, week 1, read-out: Effectiveness as a Slimicide
  MIC: < 62.5 µg/mL
P. Piscarium; [4]
  MIC: 62.5 to 125 µg/mL (≈ 418 to 836 µM)
P. Piscarium; [5]
  MIC: < 62.5 µg/mL
P. Piscarium; [6]
  MIC: < 62.5 µg/mL
P. Piscarium; [7]
  MIC: < 62.5 µg/mL
Aspergillis oryzae
  MIC: 15 µg/mL (≈ 100 µM)
Aspergillus niger; [8]
  MIC: < 125 µg/mL
Aspergillus niger; [9]
  MIC: 1000 to 2000 µg/mL (≈ 6690 to 13400 µM)
Aspergillus niger; [10]
  MIC: > 2000 µg/mL
Pseudomonas aeruginosa [1]; week 2, reinoculated weekly
  Minimum Inhibitory Concentration Range: < 125 µg/mL
Pseudomonas aeruginosa [1]; week 3, reinoculated weekly
  Minimum Inhibitory Concentration Range: < 125 µg/mL
Pseudomonas aeruginosa [1]; week 4, reinoculated weekly
  Minimum Inhibitory Concentration Range: < 125 µg/mL
Pseudomonas aeruginosa [1]; Pseudomonas aeruginosa, week 1, read-out: Minimum Inhibitory Concentration Range
  MIC: < 125 µg/mL
Pseudomonas aeruginosa [2]; week 1
  MIC: < 31.3 µg/mL
Pseudomonas aeruginosa [2]; week 2, reinoculated weekly
  MIC: 62.5 to 125 µg/mL (≈ 418 to 836 µM)
Pseudomonas aeruginosa [2]; week 3, reinoculated weekly
  MIC: 125 to 250 µg/mL (≈ 836 to 1670 µM)
Pseudomonas aeruginosa [2]; week 4, reinoculated weekly
  MIC: 250 to 500 µg/mL (≈ 1670 to 3340 µM)
Pseudomonas aeruginosa [2]; overall statement on Table III
  effectiveness as cutting oil preservative (in words): effective cutting preservative
Pseudomonas aeruginosa [3]; [8]
  MIC: 62.5 to 125 µg/mL (≈ 418 to 836 µM)
Pseudomonas aeruginosa [3]; week 2, reinoculated weekly, read-out: Minimum Inhibitory Concentration Range
  MIC: 62.5 to 125 µg/mL (≈ 418 to 836 µM)
Pseudomonas aeruginosa [3]; [9]
  MIC: 62.5 to 125 µg/mL (≈ 418 to 836 µM)
Pseudomonas aeruginosa [3]; [10]
  MIC: 125 to 250 µg/mL (≈ 836 to 1670 µM)

From US4199600A, “Preservation of aqueous systems with α-halo-β-aminocrotonic acid esters” (Givaudan Corporation, priority 1978, dated 1980)
